In ChEMBL document CHEMBL6087480, “In Search for Inhibitors of Human Aldo-Keto Reductase 1B10 (AKR1B10) as Novel Agents to Fight Cancer and Chemoresistance: Current State-of-the-Art and Prospects” (J Med Chem, 2025):

Legend:
[1] = molecular target: T1, Aldo-keto reductase family 1 member B10 (Homo sapiens, UniProt O60218); assay: Inhibition of AKR1B10 (unknown origin)
[2] = molecular target: T2, Aldo-keto reductase family 1 member B1 (Homo sapiens, UniProt P15121); assay: Inhibition of AKR1B1 (unknown origin)
[3] = molecular target: T2, Aldo-keto reductase family 1 member B1; assay: Inhibition of human recombinant AKR1B1 by fluorescence based analysis
[4] = molecular target: T1, Aldo-keto reductase family 1 member B10; assay: Inhibition of human recombinant AKR1B10
[5] = molecular target: T2, Aldo-keto reductase family 1 member B1; assay: Inhibition of human recombinant AKR1B1
[6] = molecular target: T2, Aldo-keto reductase family 1 member B1; assay: Inhibition of N-terminal 6his-tagged wild type human recombinant AKR1B1 extracted from Escherichia coli BL21 (DE3) by fluorescence based analysis

T1 sequence (O60218 whole entry): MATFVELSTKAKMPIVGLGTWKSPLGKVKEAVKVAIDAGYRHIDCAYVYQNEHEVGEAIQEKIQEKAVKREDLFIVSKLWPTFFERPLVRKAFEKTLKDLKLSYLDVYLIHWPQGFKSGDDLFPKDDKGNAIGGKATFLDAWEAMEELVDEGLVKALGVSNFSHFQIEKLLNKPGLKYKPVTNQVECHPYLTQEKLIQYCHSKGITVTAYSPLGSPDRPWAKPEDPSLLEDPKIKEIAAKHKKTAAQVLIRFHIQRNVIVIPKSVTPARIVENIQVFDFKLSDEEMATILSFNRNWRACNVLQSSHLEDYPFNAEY

Row | Structure (SMILES) | IC50 [1] | IC50 [2] | further results
1 | C[C@H](CCC(=O)O)[C@H]1CC[C@H]2[C@@H]3CC[C@@H]4C[C@@H](O)CC[C@]4(C)[C@H]3CC[C@]12C [ISOLITHOCHOLIC ACID] | 20 nM |  | 
2 | CC(=O)[C@H]1CC[C@H]2[C@@H]3CC[C@@H]4CC(=O)CC[C@]4(C)[C@H]3CC[C@]12C | 780 nM | 9 µM | 
3 | C[C@]12CC[C@H](O)C[C@@H]1CC[C@@H]1[C@@H]2CC[C@]2(C)C(=O)CC[C@@H]12 [EPIANDROSTERONE] | 320 nM | 37 µM | 
4 | CC1=C(CC(=O)O)c2cc(F)ccc2/C1=C\c1ccc([S+](C)[O-])cc1 (stereo not given) |  |  | IC50 [3]: 0.21 µM; IC50 [4]: 0.35 µM
5 | CC1(C)CC[C@]2(C(=O)O)CC[C@]3(C)C(=CC[C@@H]4[C@@]5(C)C[C@@H](O)[C@H](O)C(C)(C)[C@@H]5CC[C@]43C)[C@@H]2C1 [MASLINIC ACID] | 600 nM |  | 
6 | CC(=O)[C@H]1CC[C@H]2[C@@H]3CC[C@H]4CC(=O)CC[C@]4(C)[C@H]3CC[C@]12C | 440 nM | 13 µM | 
7 | COc1cc(O)c(CC=C(C)C)c2c1C(=O)C[C@@H](c1ccc(O)cc1)O2 | 1090 nM | 0.57 µM | 
8 | C=CCc1ccc(O)c(-c2cc(CC=C)ccc2O)c1 [MAGNOLOL] |  |  | IC50 [5]: 28 µM
9 | C[C@@]12CCC[C@H]1[C@@H]1C[C@H](O)C3=C[C@@H](O)CC[C@]3(C)[C@H]1CC2 | 500 nM | 68 µM | 
10 | CC(C)=CCc1c(O)cc2oc3cc(O)c(O)c(CC=C(C)C)c3c(=O)c2c1O |  |  | IC50 [5]: 0.29 µM
11 | O=c1cc(-c2ccccc2)oc2cc(O)cc(O)c12 [CHRYSIN] | 2100 nM | 0.29 µM | 
12 | Cc1c2cc(O)c(=O)cc-2oc2cc(O)c(O)cc12 | 400 nM |  | 
13 | COc1ccc2c(C(=S)N(C)CC(=O)O)cccc2c1C(F)(F)F [TOLRESTAT] | 50 nM |  | 
14 | O=c1c(O)c(-c2ccc(O)c(O)c2)oc2cc(O)cc(O)c12 [QUERCETIN] | 1900 nM |  | 
15 | Oc1c(F)c(F)c(-c2c(F)c(F)c(O)c(F)c2F)c(F)c1F | 1000 nM | 0.3 µM | 
16 | COc1cc(/C=C/C(=O)CC(=O)/C=C/c2ccc(O)cc2)ccc1O |  |  | IC50 [5]: 1.2 µM
17 | Oc1ccc(/C=C/c2cc(O)cc(O)c2)cc1 [RESVERATROL] |  |  | IC50 [5]: 73 µM
18 | Cc1cc(O)c2c(c1)C(=O)c1cc(O[C@@H]3O[C@@H](C)[C@H](O)[C@@H](O)[C@H]3O)cc(O)c1C2=O [FRANGULIN A] |  |  | IC50 [5]: 5.73 µM
19 | COc1cc(O)ccc1/C=C/C(=O)OCCc1ccccc1 | 10 nM |  | 
20 | O=c1c(-c2ccc(O)cc2)coc2cc(O)cc(O)c12 [GENISTEIN] | 5500 nM |  | 
21 | NC(=O)[C@@H]1C[C@]2(NC(=O)NC2=O)c2cc(F)ccc2O1 | 24000 nM |  | IC50 [6]: 80 nM
22 | COc1cc(O)ccc1/C=C/C(=O)OCCCc1ccccc1O | 100 nM |  | 
23 | C[C@@]12CCC[C@H]1[C@@H]1CC(=O)C3=CC(=O)CC[C@]3(C)[C@H]1CC2 | 810 nM | 158 µM | 
24 | C[C@]12CCC(=O)C[C@@H]1CC[C@@H]1[C@@H]2CC[C@]2(C)C(=O)CC[C@@H]12 | 390 nM | 25 µM | 
25 | C[C@H](CCC(=O)O)[C@H]1CC[C@H]2[C@@H]3C[C@@H](O)[C@@]4(O)C[C@@H](O)CC[C@]4(C)[C@H]3CC[C@]12C | 830 nM | > 100 µM | 
26 | COc1cc(O)ccc1/C=C/C(=O)OCCCc1cccc(O)c1 | 500 nM |  | 

Row | Structure (SMILES) | IC50 [1] | IC50 [2] | further results
27 | C[C@]12CCC(=O)C[C@@H]1CC[C@@H]1[C@@H]2CC[C@]2(C)[C@@H](C(=O)CO)CC[C@@H]12 | 370 nM | 55 µM | 
28 | COc1ccc(/N=c2\oc3cc(O)ccc3cc2C(=O)Nc2ccccn2)cc1 | 500 nM |  | 
29 | COc1ccc(/N=c2\oc3cc(O)ccc3cc2C(=O)Nc2cccc(C)n2)cc1OC | 30 nM |  | 
30 | Cc1cc(O)c2c(c1)C(=O)c1cc(O[C@@H]3OC[C@](O)(CO)[C@H]3O)cc(O)c1C2=O [FRANGULIN B] |  |  | IC50 [5]: 5.45 µM
31 | O=C(/C=C/c1ccc(O)c(O)c1)O[C@H]1C[C@@](O)(C(=O)O)C[C@H](O)[C@@H]1O | 7900 nM |  | 
32 | COc1ccc(OC)c(/N=c2\oc3cc(O)ccc3cc2C(=O)Nc2ccccn2)c1 | 20 nM |  | 
33 | Cc1cc(O)c2c(c1)C(=O)c1cc(O)cc(O)c1C2=O [EMODIN] |  |  | IC50 [5]: 3.47 µM
34 | C/C(=C\c1ccc(C(=O)O)cc1Br)c1ccc2c(c1)C(C)(C)CCC2(C)C | 6100 nM | > 70 µM | 
35 | CC(=O)[C@H]1CC[C@H]2[C@@H]3CC[C@H]4C[C@@H](O)CC[C@]4(C)[C@H]3CC[C@]12C [SEPRANOLONE] | 500 nM | 39 µM | 
36 | COc1ccc(/N=c2\oc3cc(O)ccc3cc2C(=O)Nc2ccccn2)c(OC)c1 | 10 nM |  | 
37 | COc1c(O)cc2oc3cc(O)c(CC=C(C)C)c(O)c3c(=O)c2c1CC=C(C)C [MANGOSTIN] |  |  | IC50 [5]: 4.1 µM
38 | CC(C)=CCC1=C(O)[C@](O)(CC=C(C)C)C(=O)C(C(=O)CC(C)C)=C1O | 1940 nM | > 125 µM | 
39 | O=c1c(O)c(-c2cc(O)c(O)c(O)c2)oc2cc(O)cc(O)c12 [MYRICETIN] |  | 0.61 µM | 
40 | C[C@]12CC[C@@H]3c4ccc(O)cc4CC[C@H]3[C@@H]1CC[C@@H]2O [ESTRADIOL] | 3000 nM | 24 µM | 
41 | O=C(/C=C/c1ccc(O)c(O)c1)c1ccc(O)cc1O [BUTEIN] |  |  | IC50 [5]: 0.5 µM
42 | C=CCc1cc(-c2cccc(CC=C)c2O)ccc1O |  |  | IC50 [5]: 36 µM
43 | COc1c(Cn2c(=O)ccn(CC(=O)O)c2=O)cc(Br)c(Br)c1Br | 450 nM | 3.6 µM | 
44 | C[C@H](CCC(=O)O)[C@H]1CC[C@H]2[C@@H]3C[C@@H](O)[C@@]4(O)C[C@@H](O)CC[C@]4(CO)[C@H]3CC[C@]12C | 760 nM | 5.4 µM | 
45 | C[C@]12CC[C@@H]3c4ccc(O)cc4CC[C@H]3[C@@H]1CCC2=O [ESTRONE] | 1600 nM | 31 µM | 
46 | Cc1ccc(Cl)c(Nc2ccccc2C(=O)O)c1Cl [MECLOFENAMIC ACID] |  |  | IC50 [3]: > 100 µM; IC50 [4]: 9.8 µM
47 | O=C(O)Cc1ccccc1Nc1c(Cl)cccc1Cl [DICLOFENAC] |  |  | IC50 [3]: > 100 µM
48 | CC(C)=CCC1=C(O)[C@](O)(CC=C(C)C)C(=O)C(C(=O)C(C)C)=C1O |  | > 125 µM | 
49 | C[C@H](CCC(=O)O)[C@H]1CC[C@H]2[C@@H]3CC[C@@H]4CCCC[C@]4(C)[C@H]3CC[C@]12C [URSOCHOLANIC ACID] | 50 nM | 16 µM | 
50 | O=C(O)Cn1ccc(=O)n(Cc2ccc(Cl)c([N+](=O)[O-])c2)c1=O | 21600 nM | 10 µM | 
51 | O=C(NCCCc1cccc(O)c1)c1cc2ccc(O)cc2oc1=O | 800 nM |  | 
52 | COc1cc(/C=C/C(=O)CC(=O)/C=C/c2ccc(O)c(OC)c2)ccc1O [CURCUMIN] |  |  | IC50 [5]: 7.3 µM
